According to patent US20230123334A1, “AMINO LIPID COMPOUND, PREPARATION METHOD THEREFOR, AND APPLICATION THEREOF” (SHENZHEN SHENXIN BIOTECHNOLOGY CO., LTD., priority 2020, published 2023):

What was measured:
Format in all cases: cell-based
[1] = test system: Hela cells; assay: Transfection of Hela cell line, mRNA vectors; details: 50 ng EGFP mRNA per well
Experimental: (§1) Cell line: Hela cells (ATCC 35241)
(§2) Medium: DMEM supplemented with 10% fetal bovine serum (Invitrogen)
(§3) Screening: cell transfection on 96-well plates
Detection (readout): percentage of the number of GFP fluorescent cells relative to the total number of cells (the total number of cells was determined using nucleus dye Hoechst). A commercially available liposome transfection reagent Lipofectamine2000 (Invitrogen) was used as the positive control group, according to the manufacturer's instructions.
Method: the experimental method was basically the same with Example 4, and the mass of EGFP mRNA for transfection was 50 ng per well.

[2] = test system: Hela cells; assay: Transfection of Hela cell line, DNA vectors; details: 75 ng plasmid DNA, GFP cells / total cells
Experimental: 1. The compound (0.01 mmol) prepared in Example 1 was dissolved in 1 mL of anhydrous ethanol. After ultrasonically dissolved, 10 μL of the resultant amino lipid solution in ethanol was taken and mixed with 5 μL of DOPE solution in ethanol (0.01 m), and then to the obtained mixture was added 35 μL of 0.2M sodium acetate buffer (pH 5.6), and 50 μL of liposome solution was prepared by vortex at a constant rotating speed for 30 s. 4 μL was taken from the 50 μL liposome solution and added to 46 μL of 0.02M sodium acetate buffer (pH 5.6), and the final liposome solution was formed by vortex at a constant rotating speed for 30 s. 5 μL was taken from the final liposome solution and mixed with 75 ng plasmid DNA (psin-EGFP-IRES-Puro, Clontech) dissolved in 5 μL of 0.02 M sodium acetate buffer, and was allowed to stay at room temperature for 30 min to form a lipid/DNA transfection complex.
2. 10 μL of the lipid/DNA transfection complex was incubated at room temperature for 30 min, followed by addition of 90 μL of fresh resuspended cells (3-5×10^4 cells) and mixing with a pipette. 100 μL of cells+lipid/DNA complex was transferred to separate wells of a 96-well culture plate immediately, and placed in an incubator containing 5% CO2 at 37° C.
3. Hoechst33258 (Invitrogen) was added at a final concentration of 0.2 μg/mL to the cells 20 to 24 hours after initial cell transfection, and cultured in darkness at 37° C. for 15 min. Afterwards, the cells were washed once with a PBS solution, and then added with medium for culture for 20 to 24 h.
4. The cells were placed in a high-throughput confocal microscope (Molecular Devices ImageXpress), and four visual fields of the image of the cells were captured for each well, and images at three laser wavelengths were captured for each sample: bright field images of cells (FIG. 2(a) and FIG. 2(b)), Hoechst-staining images showing total nuclei (FIG. 2(c) and FIG. 2(d)) and GFP images showing success in transfection with the plasmid DNA and the expression of GFP (FIG. 2(e) and FIG. 2(f)). MetaXpress software was used to separately count the cells in the Hoechst-staining images and GFP images, and then the number of cells expressing GFP was divided by the total number of nuclei to give the absolute cell transfection efficiency. The absolute transfection efficiency was calculated as follows: […]
as §1, §2, §3
Detection (readout): percentage of the number of GFP fluorescent cells relative to the total number of cells (the total number of cells was determined using nucleus dye Hoechst). Lipofectamine2000 (Invitrogen) was used as the positive control, according to the manufacturer's instructions.
Method: the experimental method was basically the same with Example 4.

[3] = test system: HEK293 cells; assay: Preliminary screening as DNA vectors, GFP transfection of HEK293 cells; details: HEK293 cells; lipid/DOPE liposome with 75 ng plasmid DNA (psin-EGFP-IRES-Puro); number of cells expressing GFP divided by total number of nuclei (Hoechst)
In short: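 HEK293 cells in DMEM/10% FBS transfected with 75 ng EGFP plasmid per well complexed with amino lipid/DOPE liposomes in pH 5.6 sodium acetate. Hoechst nuclear stain added 20-24 h post-transfection, then cells cultured another 20-24 h. Confocal imaging gives GFP-positive cells as % of total nuclei.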

[4] = test system: HEK293 cells; assay: Preliminary screening as mRNA vectors, EGFP mRNA transfection of HEK293 cells; details: HEK293 cells, 96-well plates, EGFP mRNA 50 ng per well; percentage of GFP fluorescent cells relative to total number of cells (Hoechst)
In short: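 HEK293 cells in DMEM plus 10% FBS transfected in 96-well format with 50 ng EGFP mRNA per well; Lipofectamine2000 served as positive control. Read-out is the percentage of GFP-fluorescent cells among total cells, counted by Hoechst nuclear stain.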

Structure (SMILES) | Absolute mRNA transfection efficiency in Hela cells [1] | Absolute DNA transfection efficiency in Hela cells [2] | Absolute DNA transfection efficiency in HEK293 cells [3] | Absolute mRNA transfection efficiency in HEK293 cells [4]
CCCCCCCCCCCCSc1nc(NCCN2CCCCC2)nc(SCCCCCCCC)n1 [Compound S8S12D4] | 5.4% | 5.4% | – | –
CCCCCCCCCCCCSc1nc(NCCN(CC)CC)nc(SCCCCCCCC)n1 [Compound S8S12D7] | 4.6% | 4.6% | – | –
CCCCCCCCCNc1nc(NCCN(C)C)nc(SCCCCCCCCC)n1 [Compound S9N9D1] | 17.7% | 17.7% | – | –
CCCCCCCCCNc1nc(NCCN2CCOCC2)nc(SCCCCCCCCC)n1 [Compound S9N9D2] | 12.0% | 12.0% | – | –
CCCCCCCCCNc1nc(NCCN2CCCCC2)nc(SCCCCCCCCC)n1 [Compound S9N9D4] | 8.9% | 8.9% | – | –
CCCCCCCCCNc1nc(NCCN(CC)CC)nc(SCCCCCCCCC)n1 [Compound S9N9D7] | 24.8% | 24.8% | – | –
CCCCCCCCCCCNc1nc(NCCN(C)C)nc(SCCCCCCCCC)n1 [Compound S9N11D1] | 17.7% | 17.7% | – | –
CCCCCCCCCCCNc1nc(NCCN2CCOCC2)nc(SCCCCCCCCC)n1 [Compound S9N11D2] | 8.2% | 8.2% | – | –
CCCCCCCCCCCNc1nc(NCCN2CCCCC2)nc(SCCCCCCCCC)n1 [Compound S9N11D4] | 4.4% | 4.4% | – | –
CCCCCCCCCCCNc1nc(NCCN(CC)CC)nc(SCCCCCCCCC)n1 [Compound S9N11D7] | 7.8% | 7.8% | – | –
CCCCCCCCCCCCNc1nc(NCCN(C)C)nc(SCCCCCCCCC)n1 [Compound S9N12D1] | 19.6% | 19.7% | – | –
CCCCCCCCCCCCNc1nc(NCCN2CCOCC2)nc(SCCCCCCCCC)n1 [Compound S9N12D2] | 6.5% | 6.5% | – | –
CCCCCCCCCCCCNc1nc(NCCN2CCCCC2)nc(SCCCCCCCCC)n1 [Compound S9N12D4] | 4.1% | 4.1% | – | –
CCCCCCCCCCCCNc1nc(NCCN(CC)CC)nc(SCCCCCCCCC)n1 [Compound S9N12D7] | 6.8% | 6.8% | – | –
CCCCCCCCCCCCSc1nc(NCCN(C)C)nc(SCCCCCCCCC)n1 [Compound S9S12D1] | 7.9% | 7.9% | 14.6% | 0.8%
CCCCCCCCCCCCSc1nc(NCCN2CCOCC2)nc(SCCCCCCCCC)n1 [Compound S9S12D2] | 8.5% | 8.5% | 16.7% | 0.0%
CCCCCCCCCCCCSc1nc(NCCN2CCCCC2)nc(SCCCCCCCCC)n1 [Compound S9S12D4] | 0.0% | 0.0% | 0.0% | 0.6%
